From ChEMBL document CHEMBL2401728, “An unexpected Dimroth rearrangement leading to annelated thieno[3,2-d][1,2,3]triazolo[1,5-a]pyrimidines with potent antitumor activity” (Eur J Med Chem, 2013)

How the values were obtained:
[1] = Cytotoxicity against human CNS cancer cells assessed as cellular growth at 10 uM after 48 hrs by SRB assay relative to control; format: functional, Cancer cell lines
[2] = Cytotoxicity against human ovarian cancer cells assessed as cellular growth at 10 uM after 48 hrs by SRB assay relative to control; format: functional, Cancer cell lines
[3] = Cytotoxicity against human colon cancer cells assessed as cellular growth at 10 uM after 48 hrs by SRB assay relative to control; format: functional, Cancer cell lines
SN12C = assay: Cytotoxicity against human SN12C cells after 48 hrs by SRB assay; format: functional
T47D = assay: Cytotoxicity against human T47D cells assessed as cellular growth at 100 uM after 48 hrs by SRB assay relative to control; format: functional
HT-29 = assay: Cytotoxicity against human HT-29 cells assessed as cellular growth at 0.1 uM after 48 hrs by SRB assay relative to control; format: functional
SK-OV-3 = assay: Cytotoxicity against human SKOV3 cells assessed as cellular growth at 100 uM after 48 hrs by SRB assay relative to control; format: functional
SW-620 = assay: Cytotoxicity against human SW620 cells after 48 hrs by SRB assay; format: functional; conditions: SW-620, 48 h
TK-10 = assay: Cytotoxicity against human TK10 cells assessed as cellular growth at 100 uM after 48 hrs by SRB assay relative to control; format: functional
UACC-257 = assay: Cytotoxicity against human UACC257 cells after 48 hrs by SRB assay; format: functional; conditions: UACC-257, 48 h
CCRF-CEM [4] = assay: Cytotoxicity against human CCRF-CEM cells after 48 hrs by SRB assay; format: functional
NCI-H226 = assay: Cytotoxicity against human NCI-H226 cells after 48 hrs by SRB assay; format: functional; conditions: NCI-H226, 48 h
ACHN = assay: Cytotoxicity against human ACHN cells assessed as cellular growth at 100 uM after 48 hrs by SRB assay relative to control; format: functional
A498 = assay: Cytotoxicity against human A498 cells assessed as cellular growth at 10 uM after 48 hrs by SRB assay relative to control; format: functional
HOP-92 = assay: Cytotoxicity against human HOP92 cells assessed as cellular growth at 100 uM after 48 hrs by SRB assay relative to control; format: functional
[5] = Cytotoxicity against human EKVX cells assessed as cellular growth at 10 uM after 48 hrs by SRB assay relative to control; format: functional
RXF 393 [6] = assay: Cytotoxicity against human RXF393 cells assessed as cellular growth at 0.1 uM after 48 hrs by SRB assay relative to control; format: functional
OVCAR-8 = assay: Cytotoxicity against human OVCAR8 cells assessed as cellular growth at 0.1 uM after 48 hrs by SRB assay relative to control; format: functional
[7] = Cytotoxicity against human EKVX cells assessed as cellular growth at 0.01 uM after 48 hrs by SRB assay relative to control; format: functional
HCT-116 = assay: Cytotoxicity against human HCT116 cells assessed as cellular growth at 10 uM after 48 hrs by SRB assay relative to control; format: functional
RXF 393 [8] = assay: Cytotoxicity against human RXF393 cells assessed as cellular growth at 1 uM after 48 hrs by SRB assay relative to control; format: functional
K562 = assay: Cytotoxicity against human K562 cells assessed as cellular growth at 0.01 uM after 48 hrs by SRB assay relative to control; format: functional
IGROV-1 = assay: Cytotoxicity against human IGROV1 cells after 48 hrs by SRB assay; format: functional; conditions: IGROV-1, 48 h
CCRF-CEM [9] = assay: Cytotoxicity against human CCRF-CEM cells assessed as cellular growth at 1 uM after 48 hrs by SRB assay relative to control; format: functional
OVCAR-4 = assay: Cytotoxicity against human OVCAR4 cells after 48 hrs by SRB assay; format: functional; conditions: OVCAR-4, 48 h
KM12 = assay: Cytotoxicity against human KM12 cells after 48 hrs by SRB assay; format: functional; conditions: KM12, 48 h
[10] = read-out: LC50 (the source's name)
[11] = read-out: pLC50 (the source's name) (converted)

O=C(O)CCCn1c2c(sc3ccccc32)c(=O)n2nnc(-c3ccccc3)c12
Activity [1]: 88%
Activity [2]: 105%
Activity [3]: 90%

O=C(CCCn1c2c(sc3ccccc32)c(=O)n2nnc(-c3ccccc3)c12)NCCc1c[nH]cn1
GI50 (SN12C; read-out: GI50): 11 nM
CC50 (SN12C; [10]): 5.51 µM
TGI (SN12C; read-out: TGI): 2030 nM
GI50 (SN12C; read-out: pGI50 (converted)): 11 nM
CC50 (SN12C; [11]): 5.5 µM
TGI (SN12C; read-out: pTGI (converted)): 2040 nM
Activity (T47D): -88%
Activity (HT-29): 84%
Activity (SK-OV-3): -100%
GI50 (SW-620; read-out: GI50): 24 nM
CC50 (SW-620; [10]): 4.16 µM
TGI (SW-620; read-out: TGI): 1010 nM
GI50 (SW-620; read-out: pGI50 (converted)): 24 nM
CC50 (SW-620; [11]): 4.17 µM
TGI (SW-620; read-out: pTGI (converted)): 1000 nM
Activity (TK-10): -79%
GI50 (UACC-257; read-out: GI50): 2140 nM
CC50 (UACC-257; [10]): 7.83 µM
TGI (UACC-257; read-out: TGI): 4.09 µM
GI50 (UACC-257; read-out: pGI50 (converted)): 2140 nM
CC50 (UACC-257; [11]): 7.76 µM
TGI (UACC-257; read-out: pTGI (converted)): 4.07 µM
GI50 (CCRF-CEM [4]; read-out: GI50): 15.6 nM
CC50 (CCRF-CEM [4]; [10]): 5.29 µM
TGI (CCRF-CEM [4]; read-out: TGI): 290 nM
GI50 (CCRF-CEM [4]; read-out: pGI50 (converted)): 15.5 nM
CC50 (CCRF-CEM [4]; [11]): 5.25 µM
TGI (CCRF-CEM [4]; read-out: pTGI (converted)): 288 nM
GI50 (NCI-H226; read-out: GI50): 2750 nM
CC50 (NCI-H226; [10]): 41.2 µM
TGI (NCI-H226; read-out: TGI): 7.49 µM
GI50 (NCI-H226; read-out: pGI50 (converted)): 2750 nM
CC50 (NCI-H226; [11]): 40.7 µM
TGI (NCI-H226; read-out: pTGI (converted)): 7.41 µM
Activity (ACHN): -100%
Activity (A498): -85%
Activity (HOP-92): -50%
Activity [5]: 6%
Activity (RXF 393 [6]): 125%
Activity (OVCAR-8): 33%
Activity [7]: 104%
Activity (HCT-116): -100%
Activity (RXF 393 [8]): 113%
Activity (K562): 65%
GI50 (IGROV-1; read-out: GI50): 99.7 nM
CC50 (IGROV-1; [10]): 5.04 µM
TGI (IGROV-1; read-out: TGI): 2070 nM
GI50 (IGROV-1; read-out: pGI50 (converted)): 100 nM
CC50 (IGROV-1; [11]): 5.01 µM
TGI (IGROV-1; read-out: pTGI (converted)): 2090 nM
Activity (CCRF-CEM [9]): -28%
GI50 (OVCAR-4; read-out: GI50): 1830 nM
CC50 (OVCAR-4; [10]): 8.02 µM
TGI (OVCAR-4; read-out: TGI): 3.83 µM
GI50 (OVCAR-4; read-out: pGI50 (converted)): 1820 nM
CC50 (OVCAR-4; [11]): 7.94 µM
TGI (OVCAR-4; read-out: pTGI (converted)): 3.8 µM
GI50 (KM12; read-out: GI50): 336 nM
CC50 (KM12; [10]): 4.88 µM
TGI (KM12; read-out: TGI): 2010 nM
GI50 (KM12; read-out: pGI50 (converted)): 339 nM
CC50 (KM12; [11]): 4.9 µM
TGI (KM12; read-out: pTGI (converted)): 2000 nM
